We go through one compound from patent US20170096708A1, “DIAGNOSTIC METHOD” (Convergence Pharmaceuticals Limited, priority 2014, published 2017).

For the experiment, the system named is trigeminal neuralgia (TGN) patients. Nature of the experiment: 7 week randomized withdrawal trial with trigeminal neuralgia (TGN) patients. The format is in vivo, human. From the text:
CNV1014802 is a novel Nav1.7 selective state-dependent sodium channel blocker that is being assessed in the treatment of trigeminal neuralgia. The trial used a randomized withdrawal design to assess efficacy in this rare condition and comprised a 21-day open-label phase followed by a randomized 28-day placebo-controlled phase for responders as described in Zakrzewska et al., (2013) Trials 14:402). Patients participated in an initial open-label treatment period of 21 days of CNV1014802 using 150 mg three times daily. Responders were then randomized to 28 days of CNV1014802 150 mg three times daily or placebo. A responder at the end of the open-label period was defined as a patient with one of the following: • 1) a 30% or more decrease in the total number of paroxysms over the last 7 days of the open-label phase as compared to the total number recorded in the 7-day baseline phase (day-7 to -1 prior to start of study medication, Run in); and/or • 2) a 30% reduction in the mean severity of pain experienced during the paroxysm over the last 7 days of the open-label phase as compared to the total number recorded in the 7-day baseline phase (day-7 to -1 prior to start of study medication, run in); and/or • 3) a Patient Global Improvement of Change rating of much improved/very much improved. Responders were randomized to CNV1014802 or placebo, in a 1:1 ratio. During the double-blind randomized phase, patients were evaluated at each clinic visit, which occurred every 7 days to determine whether they met the failure criteria in the double-blind treatment period. […]

The structures appear in SMILES notation. Counter-ions that a name gives are not always drawn.

`NC(=O)[C@@H]1CC[C@H](c2ccc(OCc3ccccc3F)cc2)N1` [CNV1014802, (5R)-5-(4-{[(2-fluorophenyl)methyl]oxy}phenyl)-L-prolinamide hydrochloride salt]: the “reduction in pain severity” value (150 mg three times daily, final week of double-blind (week 7) vs 7 day run-in, LOCF, compared to placebo group, p=0.04, FIG. 1) is on record as “superior”. The “reduction in the number of paroxysms” value (150 mg three times daily, final week of double-blind (week 7) vs 7 day run-in, LOCF, compared to placebo group, p=0.08, FIG. 1) is recorded as “superior”. For the setting “all patients with genetic variations, responder criteria of the 21-day open-label phase”, the “response to treatment in patients with genetic variations within the CACNA1A gene and/or the CACNA1B gene” value was “responded to treatment”.
